Measured values taken from ChEMBL document CHEMBL5608235, “Tricyclic Benzo[1,3]oxazinyloxazolidinones as Potent Antibacterial Agents against Drug-Resistant Pathogens” (J Med Chem, 2024).
Converted amounts (≈) assume the structure as drawn. The source made the active and inactive calls. The calls are words filed in the database; no cut-off is given here.

Tests used:
Cell membrane [1] = test: Disruption of cell membrane in methicillin resistant Staphylococcus aureus ATCC 33592 assessed as cell shrinkage at 0.5 ug/ml incubated for 6 hrs by Scanning electron microscopic analysis; format: cell membranes; conditions: dose 0.5 µg/ml
Staphylococcus aureus [2] = test: Antibacterial activity against vancomycin intermediate Staphylococcus aureus ATCC700699 assessed as inhibition of bacterial growth incubated for 7 days by alamar blue assay; format: functional; conditions: ATCC700699, 168 h, time 7 day
[3] = AUC (0 to infinity) in BALB/c mouse at 10 mg/kg,po administration measured upto 24 hrs by LC-MS/MS analysis; format: ADME, organism-based; conditions: BALB/c, in vivo
Cell membrane [4] = test: Disruption of cell membrane integrity in methicillin resistant Staphylococcus aureus ATCC 33592 assessed as increase in red fluorescence at 1 ug/ml incubated for 1 hr by […] and propidium iodide double staining based confocal microscopic analysis; format: cell membranes; conditions: dose 1.0 µg/ml
[5] = AUC (0 to t) in BALB/c mouse at 1 mg/kg,iv administration measured upto 24 hrs by LC-MS/MS analysis; format: ADME, organism-based; conditions: in vivo
Staphylococcus aureus [6] = test: (§1) Antibacterial activity against methicillin resistant Staphylococcus aureus ATCC 33592 infected in cyclophosphamide-induced immunosuppressed Kunming mouse assessed as reduction in bacterial load in lung at 10 to 50 mg/kg,po administration measured after 24 hrs by hematoxylin and eosin staining based microscopy; format: functional, organism-based; conditions: dose 10-50 mg/kg
Staphylococcus aureus [7] = test: as §1, with “pigment deposition” for “bacterial load”, “spleen” for “lung”, “10” for “10 to 50”; format: functional, organism-based
Staphylococcus aureus [8] = test: Antibacterial activity against methicillin resistant Staphylococcus aureus clinical isolate 20-2 assessed as inhibition of bacterial growth incubated for 7 days by alamar blue assay; format: functional; conditions: clinical isolate 20-2, 168 h, time 7 day
Staphylococcus aureus [9] = test: Antibacterial activity against methicillin resistant Staphylococcus aureus ATCC 33592 infected in cyclophosphamide-induced immunosuppressed Kunming mouse assessed as increase in body weight at 10 to 50 mg/kg,po administration measured for 7 days; format: functional, organism-based; conditions: dose 10-50 mg/kg, time 7.0 day
Staphylococcus aureus [10] = test: Antibacterial activity against methicillin resistant Staphylococcus aureus ATCC 33592 infected in cyclophosphamide-induced immunosuppressed Kunming mouse by measuring survival rate of mouse at 10 mg/kg,po administration measured for 7 days; format: functional; conditions: ATCC 33592, 168 h, time 7 day
[11] = AUC (0 to t) in BALB/c mouse at 10 mg/kg,po administration measured upto 24 hrs by LC-MS/MS analysis; format: ADME, organism-based; conditions: in vivo
Staphylococcus aureus [12] = test: Antibacterial activity against vancomycin resistant Staphylococcus aureus assessed as inhibition of bacterial growth incubated for 7 days by alamar blue assay; format: functional; conditions: 168 h, time 7 day
Staphylococcus aureus [13] = test: as §1, with “histopathological change” for “bacterial load”, “25” for “10”; format: functional, organism-based; conditions: dose 25-50 mg/kg
[14] = Tmax in BALB/c mouse at 10 mg/kg,po administration measured upto 24 hrs by LC-MS/MS analysis; format: ADME, organism-based; conditions: in vivo
Cell membrane [15] = test: Disruption of cell membrane integrity in Staphylococcus aureus ATCC 25923 assessed as increase in red fluorescence at 0.5 ug/ml incubated for 1 hr by […] and propidium iodide double staining based confocal microscopic analysis; format: cell membranes; conditions: dose 0.5 µg/ml
[16] = AUC (0 to infinity) in BALB/c mouse at 1 mg/kg,iv administration measured upto 24 hrs by LC-MS/MS analysis; format: ADME, organism-based; conditions: BALB/c, in vivo
Staphylococcus aureus [17] = test: as §1, with “kidney” for “lung”, “25” for “10”; format: functional, organism-based; conditions: dose 25-50 mg/kg
Staphylococcus aureus [18] = test: as §1, with “pigment deposition” for “bacterial load”, “spleen” for “lung”, “at” for “at 10 to”; format: functional, organism-based
Staphylococcus aureus [19] = test: Antibacterial activity against methicillin resistant Staphylococcus aureus ATCC 33592 infected in cyclophosphamide-induced immunosuppressed Kunming mouse assessed as increase in lymphocytes at 25 to 50 mg/kg,po administration measured after 7 days by Giemsa staining based analysis; format: functional, organism-based; conditions: dose 25-50 mg/kg, time 7.0 day
Staphylococcus aureus [20] = test: Antibacterial activity against methicillin resistant Staphylococcus aureus ATCC 33592 infected in cyclophosphamide-induced immunosuppressed Kunming mouse assessed as decrease in TNF-alpha level at po administration measured after 24 hrs by ELISA; format: functional, organism-based
Staphylococcus aureus [21] = test: Antibacterial activity against methicillin resistant Staphylococcus aureus ATCC 33592 infected in cyclophosphamide-induced immunosuppressed Kunming mouse assessed as decrease in IL-6 level at po administration measured after 24 hrs by ELISA; format: functional, organism-based
Staphylococcus aureus [22] = test: Antibacterial activity against methicillin resistant Staphylococcus aureus clinical isolate 20-1 assessed as inhibition of bacterial growth incubated for 7 days by alamar blue assay; format: functional; conditions: clinical isolate 20-1, 168 h, time 7 day
[23] = Oral bioavailability in BALB/c mouse at 10 mg/kg administration measured upto 24 hrs by LC-MS/MS analysis; format: ADME, organism-based; conditions: BALB/c, in vivo
Staphylococcus aureus [24] = test: Bacteriostatic activity against methicillin resistant Staphylococcus aureus ATCC 33592 at 4 times MIC incubated for 2 to 24 hrs by time-kill assay; format: functional, organism-based; conditions: time 2-24 hrs
Cell membrane [25] = test: Disruption of cell membrane in methicillin resistant Staphylococcus aureus ATCC 33592 assessed as cell surface perforation at 0.5 ug/ml incubated for 6 hrs by Scanning electron microscopic analysis; format: cell membranes; conditions: dose 0.5 µg/ml
Staphylococcus aureus [26] = test: Induction of resistant development in methicillin resistant Staphylococcus aureus ATCC 33592 assessed as fold increase in MIC at 0.5 to 4 ug/ml measured after 30 serial passages by broth microdilution analysis; format: functional; conditions: dose 0.5-4 µg/ml
Staphylococcus aureus [27] = test: as §1, with “histopathological change” for “bacterial load”, “heart” for “lung”; format: functional, organism-based; conditions: dose 10-50 mg/kg
[28] = Terminal half life in BALB/c mouse at 10 mg/kg,po administration measured upto 24 hrs by LC-MS/MS analysis; format: ADME, organism-based; conditions: in vivo, read-out: beta t1/2 (converted)
[29] = MRT (0 to t) in BALB/c mouse at 1 mg/kg,iv administration measured upto 24 hrs by LC-MS/MS analysis; format: ADME, organism-based; conditions: in vivo
Staphylococcus aureus [30] = test: Antibacterial activity against methicillin resistant Staphylococcus aureus ATCC 33592 infected in cyclophosphamide-induced immunosuppressed Kunming mouse by measuring survival rate of mouse at 50 mg/kg,po administration measured for 7 days; format: functional; conditions: ATCC 33592, 168 h, time 7 day
[31] = Cmax in BALB/c mouse at 10 mg/kg,po administration measured upto 24 hrs by LC-MS/MS analysis; format: ADME, organism-based; conditions: in vivo
Staphylococcus aureus [32] = test: as §1, with “spleen” for “lung”; format: functional, organism-based; conditions: dose 10-50 mg/kg
[33] = Metabolic stability in ICR mouse liver microsomes assessed as compound remaining at 10 uM incubated for 60 mins in absence of NADPH by LC-MS/MS analysis; format: ADME, Microsome; conditions: read-out: Stability
Staphylococcus aureus [34] = test: as §1, with “inflammatory cell infiltration” for “bacterial load”; format: functional, organism-based; conditions: dose 10-50 mg/kg
[35] = MRT (0 to t) in BALB/c mouse at 10 mg/kg,po administration measured upto 24 hrs by LC-MS/MS analysis; format: ADME, organism-based; conditions: in vivo

In the case of CC(=O)NC[C@@H]1OC(=O)N2Cc3cc(-c4ccc(C#N)cc4)c(F)cc3O[C@@H]12, the Activity (Cell membrane [1]) is reported as “Active”, the MIC (Staphylococcus aureus [2]) is reported as 0.5 µg/mL (≈ 1.31 µM) and the AUC(0-inf) [3] is reported as 83500 ng·h/mL. For the same molecule, the Activity (Cell membrane [4]) was “Active”, the AUC(0-t) at 24 h [5] was 5120 ng·h/mL and the Activity (Staphylococcus aureus [6]) was “Active”. The Activity (Staphylococcus aureus [7]) was “Active”, the MIC (Staphylococcus aureus [8]) was 0.5 µg/mL (≈ 1.31 µM) and the Activity (Staphylococcus aureus [9]) was “Active”. The survival at 10 mg/kg (Staphylococcus aureus [10]) was 85.7%, the AUC(0-t) at 24 h [11] was 62500 ng·h/mL and the MIC (Staphylococcus aureus [12]) was 1 µg/mL (≈ 2.62 µM). The Activity (Staphylococcus aureus [13]) was “Active”, the Tmax [14] was 2 h and the Activity (Cell membrane [15]) was “Active”. The AUC(0-inf) [16] was 5130 ng·h/mL, the Activity (Staphylococcus aureus [17]) was “Active” and the Activity (Staphylococcus aureus [18]) was “Active”. The Activity (Staphylococcus aureus [19]) was “Active”, the Activity (Staphylococcus aureus [20]) was “Dose-Dependent Effect” and the Activity (Staphylococcus aureus [21]) was “Dose-Dependent Effect”. The MIC (Staphylococcus aureus [22]) was 0.5 µg/mL (≈ 1.31 µM), the bioavailability [23] was 122% and the Activity (Staphylococcus aureus [24]) was “Active”. The Activity (Cell membrane [25]) was “Active”, the fold change (FC) (Staphylococcus aureus [26]) was 8 and the Activity (Staphylococcus aureus [27]) was “Active”. For the same molecule, the half-life [28] was 11.9 h, the MRT last at 24 h [29] was 6.6 h and the survival at 50 mg/kg (Staphylococcus aureus [30]) was 100%. For the same molecule, the Cmax [31] was 4510 ng/mL, the Activity (Staphylococcus aureus [32]) was “Active” and the remaining at 1 h, 10 µM [33] was 101%. The Activity (Staphylococcus aureus [34]) was “Active” and the MRT last at 24 h [35] was 9.3 h.
